Data as given in article PMC6896740, “Safety, tolerability, pharmacokinetics, and pharmacodynamics of PF-06650833, a selective interleukin-1 receptor-associated kinase 4 (IRAK4) inhibitor, in single and multiple ascending dose randomized phase 1 studies in healthy subjects” (Arthritis Research & Therapy, 2019).
Like-named read-outs stand apart in the source and are kept apart here.

Assay: Study 2 (MAD) plasma and urine pharmacokinetics
Format: in vivo, human
Conditions: human, oral; for Tmax: read-out: Tmax, median (range); for AUC: read-out: AUCtau, geometric mean (%CV); for Cmax: read-out: Cmax, geometric mean (%CV)
Method: Subjects were enrolled sequentially into seven cohorts. Within each cohort, eight subjects and two subjects were randomized to receive PF-06650833 and placebo, respectively. Doses for all cohorts were administered after a standard (not high-fat) meal. Multiple dosing regimens (once daily [QD] 24 h apart, twice daily [BID] 12 h apart, three times per day [TID] 8 h apart, and four times per day [QID] 6 h apart) were used to provide required total daily doses. In the final dosing scheme, multiple oral doses of PF-06650833 IR suspension formulations at 25, 100, 250, and 750 mg BID and 1000 mg QID were administered in cohorts 1–5. PF-06650833 IR 330 mg TID (cohort 6) and an MR tablet at a dose of 300 mg QD (cohort 7) were also evaluated (see Fig. 1b for final dosing scheme).
For both studies, samples of blood (and urine in study 2) were taken for evaluation of PK/PD parameters (see Additional file 1: Supplemental Methods). PK samples were obtained at the nominal time relative to dosing (± 10%). Plasma and urine samples were analyzed using validated, sensitive, and specific liquid chromatography tandem mass spectrometric methods (at Pfizer Inc., Groton, CT, USA, for study 1 and at Worldwide Pharmacokinetics, Dynamics and Metabolism, Cambridge, MA, USA, for study 2). The lower limit of quantification for PF-06650833 in plasma was 0.0500 ng/mL. The lower limit of quantification for PF-06650833 in urine was 1.00 ng/mL. Serum samples were also analyzed for hsCRP, and plasma samples were analyzed for 4β-hydroxycholesterol and cholesterol.
PK parameters were calculated using non-compartmental analysis of concentration-time data. For study 1 only, data from cohort 1 (period 4 [IR 30 mg] versus period 5 [IR 30 mg + food]) and cohort 3 (period 2 [MR 30 mg] versus period 3 [MR 30 mg + food]) were used to estimate the effect of food intake. Cmax and AUC were calculated for each subject and treatment, with and without food, after which a within-subject difference could be found between fed (high-fat meal) and fasted doses. Analysis of covariance was used to model these within-subject differences and to calculate 95% confidence intervals (CIs) for the differences for each dose (IR 30 mg and MR 30 mg). For study 2 only, the amounts of PF-06650833 in urine and renal clearance were listed and summarized descriptively. As part of the routine safety laboratory monitoring, the presence of any atypical crystals in urine specimens was semi-quantitatively assessed microscopically by typical histopathologic methods and scored as numbers of crystals per high power field (hpf); higher abundance (moderate or many) was defined as ≥ 15/hpf. No formal interim analyses were conducted.
22 In Study 2, pre-dose blood samples were collected for PK analysis on days 1, 2, 4, 7, 10, and
23 14. Post-dose samples were collected for PK analysis on days 1 and 14 at 0.5, 1, 2, 4, 6, 8, 10,
24 12, and 16 hours post-dose; on day 7 at 1, 2, 4, 6, 8, and 12 hours post-dose; and on days 15,
27 hours post-dose. […]
32 Blood samples (2 mL, to obtain ≥0.5 mL plasma) were collected in K2EDTA tubes
33 (dipotassium ethylenediaminetetraacetic acid) and centrifuged at ~1700 x g for 10 minutes at
34 4 °C, with plasma then stored in polypropylene tubes at -70 °C within 1 hour of collection.
35 Plasma samples were analyzed using a validated, sensitive , and specific liquid
36 chromatography tandem mass spectrometric method (LC -MS; at Pfizer Inc, Groton, CT, USA
37 for Study 1; and at Worldwide Pharmaco kinetics, Dynamics, and Metabolism, Cambridge,
38 MA, USA for Study 2). The lower limit of quantification (LLOQ) for PF-06650833 in plasma
39 was 0.0500 ng/mL. Between-day assay accuracy values were also calculated (not shown).
40 In Study 2 only, urine samples we re collected in aliquots pre-dose. Cumulative 0–12-hour
41 and 12–24-hour urine samples were also collected as follows: from day 1 after morning
42 dosing to day 2 before morning dosing (and before breakfast) for cohorts 6 –8 only; and from […]

[1] = plasma, 100 mg, IR 100 mg BID, day 14, fed (standard meal)
[2] = plasma, 250 mg, IR 250 mg BID, day 1, fed (standard meal)
[3] = plasma, 250 mg, IR 250 mg BID, day 14, fed (standard meal)
[4] = plasma, 300 mg, MR 300 mg QD, day 1, fed (standard meal)
[5] = plasma, 300 mg, MR 300 mg QD, day 14, fed (standard meal)
[6] = plasma, 330 mg, IR 330 mg TID, day 1, fed (standard meal)
[7] = plasma, 330 mg, IR 330 mg TID, day 14, fed (standard meal)
[8] = plasma, 750 mg, IR 750 mg BID, day 1, fed (standard meal)
[9] = plasma, 750 mg, IR 750 mg BID, day 14, fed (standard meal)
[10] = plasma, 1000 mg, IR 1000 mg QID, day 1, fed (standard meal)

CC[C@@H]1[C@H](F)C(=O)N[C@@H]1COc1nccc2cc(C(N)=O)c(OC)cc12 [PF-06650833, 1-{[(2S,3S,4S)-3-Ethyl-4-fluoro-5-oxopyrrolidin-2-yl]methoxy}-7-methoxyisoquinoline-6-carboxamide]
Tmax (plasma, 100 mg, IR 100 mg BID, day 1, fed (standard meal)): 2.03 h
AUC [1]: 776 ng·h/mL
Cmax [1]: 128 ng/mL
Tmax [1]: 2.02 h
AUC [2]: 1350 ng·h/mL
Cmax [2]: 226 ng/mL
Tmax [2]: 4 h
AUC [3]: 1360 ng·h/mL
Cmax [3]: 238 ng/mL
Tmax [3]: 2.02 h
AUC [4]: 1150 ng·h/mL
Cmax [4]: 149 ng/mL
Tmax [4]: 4 h
AUC [5]: 975 ng·h/mL
Cmax [5]: 147 ng/mL
Tmax [5]: 4 h
AUC [6]: 1500 ng·h/mL
Cmax [6]: 309 ng/mL
Tmax [6]: 2.03 h
AUC [7]: 1600 ng·h/mL
Cmax [7]: 318 ng/mL
Tmax [7]: 2 h
AUC [8]: 2580 ng·h/mL
Cmax [8]: 470 ng/mL
Tmax [8]: 3.12 h
AUC [9]: 2480 ng·h/mL
Cmax [9]: 421 ng/mL
Tmax [9]: 2 h
AUC [10]: 2010 ng·h/mL
Cmax [10]: 517 ng/mL
Tmax [10]: 4 h
Tmax at 1 day (plasma, day 1, range across IR 25 to 1000 mg, standard meal, read-out: Median Tmax): 2 to 4 h
Tmax at 14 day (plasma, day 14, IR formulations, standard meal, read-out: Median Tmax): 2 h
half-life (plasma, range for IR 750 mg BID, IR 330 mg TID, MR 300 mg QD, read-out: Mean half-life at steady state): 25.4 to 31.4 h
Vd/F (plasma, IR 25 mg BID, day 14, fed (standard meal), read-out: Vz/F, geometric mean (%CV)): 9650 L
Vd/F (plasma, IR 100 mg BID, day 14, fed (standard meal), read-out: Vz/F, geometric mean (%CV)): 8060 L
Vd/F (plasma, IR 250 mg BID, day 14, fed (standard meal), read-out: Vz/F, geometric mean (%CV)): 10200 L
Vd/F (plasma, IR 330 mg TID, day 14, fed (standard meal), read-out: Vz/F, geometric mean (%CV)): 10100 L
Vd/F (plasma, IR 750 mg BID, day 14, fed (standard meal), read-out: Vz/F, geometric mean (%CV)): 13200 L
Vd/F at 14 day (plasma, MR 300 mg QD, day 14, fed (standard meal), read-out: Vz/F, geometric mean (%CV)): 11600 L
Vd at 14 day (plasma, range across all dosages, day 14, read-out: Mean volume of distribution): 8060 to 13200 L
CL renal (urine and plasma, 300 mg, MR 300 mg QD, day 14, fed (standard meal), read-out: CLr (renal clearance), geometric mean (%CV)): 15.4 mL/min
CL renal (urine and plasma, 330 mg, IR 330 mg TID, day 14, fed (standard meal), read-out: CLr (renal clearance), geometric mean (%CV)): 18.8 mL/min
CL renal (urine and plasma, range for IR < 750 mg and MR 300 mg, read-out: Renal clearance): 14 to 23 mL/min
CL renal at 14 day (urine, 25 mg, IR 25 mg BID, day 14, fed (standard meal), read-out: CLr (renal clearance), geometric mean (%CV)): 13.6 mL/min
CL renal at 14 day (urine, 100 mg, IR 100 mg BID, day 14, fed (standard meal), read-out: CLr (renal clearance), geometric mean (%CV)): 18.5 mL/min
CL renal at 14 day (urine, 250 mg, IR 250 mg BID, day 14, fed (standard meal), read-out: CLr (renal clearance), geometric mean (%CV)): 13.9 mL/min
CL renal (urine, 750 mg, IR 750 mg BID, day 14, fed (standard meal), read-out: CLr (renal clearance), geometric mean (%CV)): 23 mL/min
CL renal (urine, range for IR 25 mg BID, IR 330 mg TID and MR 300 mg QD, read-out: Renal clearance): 14 to 19 mL/min
